Calls of active or inactive are those of the source. No rule for the calls is given here.

The subject of the data set is CCRIS mutagenicity, Ames/micronucleus/aberration tests. The experiment in a line: CCRIS mutagenicity studies.
Setting [1] is: Test System: AMES SALMONELLA TYPHIMURIUM, Strain/Indicator: TA100, Metabolic Activation: NONE, Method: PREINCUBATION

`O=C1[C@H]2CC=CC[C@H]2C(=O)N1SC(Cl)(Cl)Cl`: the mutagenic call was “active; positive” (Test System: AMES SALMONELLA TYPHIMURIUM, Strain/Indicator: G46, Metabolic Activation: MOUSE, LIVER, S-9, PHENOBARBITAL, Method: STANDARD PLATE); “active; positive” (Test System: AMES SALMONELLA TYPHIMURIUM, Strain/Indicator: TA97A, Metabolic Activation: NONE, Method: STANDARD PLATE); “inactive; negative” (Test System: AMES SALMONELLA TYPHIMURIUM, Strain/Indicator: TA97A, Metabolic Activation: RAT, LIVER, S-9, AROCLOR 1254, Method: STANDARD PLATE); “active; positive” (Test System: AMES SALMONELLA TYPHIMURIUM, Strain/Indicator: TA98, Metabolic Activation: NONE); “active; positive” (Test System: AMES SALMONELLA TYPHIMURIUM, Strain/Indicator: TA98, Metabolic Activation: RAT, LIVER, S-9, AROCLOR 1254); “active; positive” (Test System: AMES SALMONELLA TYPHIMURIUM, Strain/Indicator: TA98, Metabolic Activation: RAT, LIVER, S-9, AROCLOR 1254, Method: STANDARD PLATE). Moreover, the mutagenic call is “active; positive” (Test System: AMES SALMONELLA TYPHIMURIUM, Strain/Indicator: TA100, Metabolic Activation: NONE); “active; positive” under setting [1]; “active; positive” (Test System: AMES SALMONELLA TYPHIMURIUM, Strain/Indicator: TA100, Metabolic Activation: RAT, LIVER, S-9, AROCLOR 1254); “active; positive” (Test System: AMES SALMONELLA TYPHIMURIUM, Strain/Indicator: TA100, Metabolic Activation: RAT, LIVER, S-9, Method: STANDARD PLATE); “active; positive” (Test System: AMES SALMONELLA TYPHIMURIUM, Strain/Indicator: TA100, Metabolic Activation: S-9 MIX, Method: STANDARD PLATE); “active; positive” (Test System: AMES SALMONELLA TYPHIMURIUM, Strain/Indicator: TA102, Metabolic Activation: NONE). The mutagenic call is “active; positive” (Test System: AMES SALMONELLA TYPHIMURIUM, Strain/Indicator: TA102, Metabolic Activation: RAT, LIVER, S-9, AROCLOR 1254); “inactive; negative” (Test System: AMES SALMONELLA TYPHIMURIUM, Strain/Indicator: TA102, Metabolic Activation: RAT, LIVER, S-9, AROCLOR 1254, Method: STANDARD PLATE); “inactive; negative” (Test System: AMES SALMONELLA TYPHIMURIUM, Strain/Indicator: TA102, Metabolic Activation: RAT, LIVER, S-9, PHENOBARBITAL, Method: STANDARD PLATE); “inactive; negative” (Test System: AMES SALMONELLA TYPHIMURIUM, Strain/Indicator: TA104, Metabolic Activation: RAT, LIVER, S-9, AROCLOR 1254, Method: STANDARD PLATE); “active; positive” (Test System: AMES SALMONELLA TYPHIMURIUM, Strain/Indicator: TA104, Metabolic Activation: RAT, LIVER, S-9, PHENOBARBITAL, Method: STANDARD PLATE); “active; positive” (Test System: AMES SALMONELLA TYPHIMURIUM, Strain/Indicator: TA1535, Metabolic Activation: MOUSE, LIVER, S-9, PHENOBARBITAL, Method: STANDARD PLATE). Moreover, the mutagenic call (Test System: AMES SALMONELLA TYPHIMURIUM, Strain/Indicator: TA1535, Metabolic Activation: NONE) was “active; positive”; the mutagenic call (Test System: AMES SALMONELLA TYPHIMURIUM, Strain/Indicator: TA1535, Metabolic Activation: NONE, Method: STANDARD PLATE) is “active; positive”; the mutagenic call (Test System: AMES SALMONELLA TYPHIMURIUM, Strain/Indicator: TA1535, Metabolic Activation: RAT, LIVER, S-9, AROCLOR 1254) is “active; positive”; the mutagenic call (Test System: AMES SALMONELLA TYPHIMURIUM, Strain/Indicator: TA1535, Metabolic Activation: RAT, LIVER, S-9, PHENOBARBITAL, Method: STANDARD PLATE) is “active; positive”; the mutagenic call (Test System: AMES SALMONELLA TYPHIMURIUM, Strain/Indicator: TA1537, Metabolic Activation: NONE) was “active; positive”; the mutagenic call (Test System: AMES SALMONELLA TYPHIMURIUM, Strain/Indicator: TA1537, Metabolic Activation: NONE, Method: STANDARD PLATE) was “active; positive”. The mutagenic call reads like this: (Test System: AMES SALMONELLA TYPHIMURIUM, Strain/Indicator: TA1537, Metabolic Activation: RAT, LIVER, S-9, AROCLOR 1254) “active; positive”; (Test System: AMES SALMONELLA TYPHIMURIUM, Strain/Indicator: TA1537, Metabolic Activation: RAT, LIVER, S-9, PHENOBARBITAL, Method: STANDARD PLATE) “active; positive”; (Test System: AMES SALMONELLA TYPHIMURIUM, Strain/Indicator: TA1950, Metabolic Activation: NONE, Method: SPOT) “active; positive”; (Test System: Ames Salmonella typhimurium, Strain/Indicator: TA100, Metabolic Activation: None, Method: Preincubation) “active; positive”; (Test System: Ames Salmonella typhimurium, Strain/Indicator: TA1975P, Metabolic Activation: None, Method: Preincubation) “active; positive (at higher doses)”; (Test System: CHINESE HAMSTER OVARY, Strain/Indicator: CHO-K1-BH4 (HGPRT), Metabolic Activation: RAT, LIVER, S-9, AROCLOR, Method: SUSPENSION/PLATE) “active; positive”. In addition, the mutagenic call is “active; positive” (Test System: CHINESE HAMSTER V-79, Strain/Indicator: V-79/8-AZAGUANINE, Metabolic Activation: NONE, Method: STANDARD PLATE); “active; positive” (Test System: CHINESE HAMSTER V-79, Strain/Indicator: V-79/OUABAIN, Metabolic Activation: NONE, Method: STANDARD PLATE); “active; positive” (Test System: E. COLI, Strain/Indicator: WP2, Metabolic Activation: NONE, Method: STANDARD PLATE); “active; positive” (Test System: E. COLI, Strain/Indicator: WP2, Metabolic Activation: RAT, LIVER, S-9, Method: STANDARD PLATE); “active; positive” (Test System: E. COLI, Strain/Indicator: WP2 UVRA, Metabolic Activation: NONE, Method: STANDARD PLATE); “active; positive” (Test System: E. COLI, Strain/Indicator: WP2 UVRA, Metabolic Activation: RAT, LIVER, S-9, AROCLOR 1254, Method: STANDARD PLATE).
Take `CCNC(=O)Nc1ccc(OCC(O)CNC(C)(C)C)c(C(C)=O)c1` (stereo unspecified): the mutagenic call by setting is: (Test System: AMES SALMONELLA TYPHIMURIUM, Strain/Indicator: TA98, Metabolic Activation: NONE, Method: PREINCUBATION) “inactive; negative”; (Test System: AMES SALMONELLA TYPHIMURIUM, Strain/Indicator: TA98, Metabolic Activation: RAT, LIVER, S-9, AROCLOR 1254 (10 OR 50 µL/PLATE), Method: PREINCUBATION) “inactive; negative”; under setting [1], “inactive; negative”; (Test System: AMES SALMONELLA TYPHIMURIUM, Strain/Indicator: TA100, Metabolic Activation: RAT, LIVER, S-9, AROCLOR 1254 (10 OR 50 µL/PLATE), Method: PREINCUBATION) “inactive; negative”; (Test System: AMES SALMONELLA TYPHIMURIUM, Strain/Indicator: TA1535, Metabolic Activation: NONE, Method: PREINCUBATION) “inactive; negative”; (Test System: AMES SALMONELLA TYPHIMURIUM, Strain/Indicator: TA1535, Metabolic Activation: RAT, LIVER, S-9, AROCLOR 1254 (10 OR 50 µL/PLATE), Method: PREINCUBATION) “inactive; negative”. For the same compound, the mutagenic call reads like this: (Test System: AMES SALMONELLA TYPHIMURIUM, Strain/Indicator: TA1537, Metabolic Activation: NONE, Method: PREINCUBATION) “inactive; negative”; (Test System: AMES SALMONELLA TYPHIMURIUM, Strain/Indicator: TA1537, Metabolic Activation: RAT, LIVER, S-9, AROCLOR 1254 (10 OR 50 µL/PLATE), Method: PREINCUBATION) “inactive; negative”; (Test System: E. COLI, Strain/Indicator: WP2 UVRA, Metabolic Activation: NONE, Method: PREINCUBATION) “inactive; negative”; (Test System: E. COLI, Strain/Indicator: WP2 UVRA, Metabolic Activation: RAT, LIVER, S-9, AROCLOR 1254 (10 OR 50 µL/PLATE), Method: PREINCUBATION) “inactive; negative”.

These data come from PubChem BioAssay AID1259407 (Chemical Carcinogenesis Research Information System (CCRIS), 2018).
